Test results as given in patent publication US11590233B2, “Porphyrin compounds and compositions useful for treating cancer” (OncoSelect Therapeutics, LLC, priority 2016, dated 2023).

Key:
a cancer cell line = assay: TCPP uptake by a cancer cell treated with different inhibitors of endocytosis (FIG. 3); assay type: cell-based, human
Excerpt: (§1) Porphyrin tetrakis(4-carboxyphenyl)porphyrin (TCPP) uptake by a panel of human lung cancer cell lines including, HCC15, H157, and H358 were examined using flow cytometry in under varying conditions to manipulate clathrin-dependent and independent endocytosis by chemical inhibitors. […] It has been speculated that preferential porphyrin uptake by cancer cells as compared to non-cancer cells is facilitated by the increased number of LDL receptor (LDLR) on the surface of cancer cells.

HCC15 = assay: TCPP uptake in cancer cells vs non-cancer cells by flow cytometry; assay type: cell-based, human; settings: 10 ug/ml, HCC15 vs bone marrow cells
Excerpt: (§2) Porphyrin tetrakis(4-carboxyphenyl)porphyrin (TCPP) uptake by a panel of human lung cancer cell lines including, HCC15, H157, and H358 were examined using flow cytometry in under varying conditions to manipulate clathrin-dependent and independent endocytosis by chemical inhibitors. Referring now to FIG. 1, TCPP uptake in cancer cells (HCC15) as compared to bone marrow cells in a dose dependent manner is illustrated. Similar results are observed with mouse normal lung cells as is shown for bone marrow cells. The uptake of TCPP by HCC15 is greater than 2-fold at 10 ug/ml as compared to the non-cancer cells. […] Chlorpromazine, an antagonist of clathrin-mediated endocytosis, inhibited TCPP uptake in a cancer cell line by up to 80% as is illustrated in FIG. 3. In contrast, the clathrin-independent endocytosis inhibitor filipin had no effect on TCPP uptake. It has been speculated that preferential porphyrin uptake by cancer cells as compared to non-cancer cells is facilitated by the increased number of LDL receptor (LDLR) on the surface of cancer cells. To examine LDLR contribution on TCPP uptake, lung cancer cells were manipulated to express no LDLR, which reduced TCPP uptake by only 20%.

HCC15, H157 and H358 = assay: TCPP uptake in cancer cell lines under sucrose or cold temperature (FIG. 2); assay type: cell-based, human
Excerpt: as §1

lung cancer cells = assay: TCPP uptake in lung cancer cells manipulated to express no LDLR; assay type: cell-based, human; settings: lung cancer cells expressing no LDLR
Excerpt: as §2

[1] = tested on: human fibroblasts without functional LDLR; assay: TCPP uptake in human fibroblasts without functional LDLR; assay type: cell-based

`CN(C)CCCN1c2ccccc2Sc2ccc(Cl)cc21` [Chlorpromazine] was tested, and the “inhibition of TCPP uptake” value (a cancer cell line; antagonist of clathrin-mediated endocytosis, a cancer cell line) was “up to 80%”.
In the case of `O=C(O)c1ccc(-c2c3nc(c(-c4ccc(C(=O)O)cc4)c4ccc([nH]4)c(-c4ccc(C(=O)O)cc4)c4nc(c(-c5ccc(C(=O)O)cc5)c5ccc2[nH]5)C=C4)C=C3)cc1` [TCPP, tetrakis(4-carboxyphenyl)porphyrin], the “uptake of TCPP by HCC15 as compared to the non-cancer cells” value (HCC15) is reported as “greater than 2 fold”, the “inhibition of TCPP uptake by cold temperature” value (HCC15, H157 and H358; cold temperature) is reported as “nearly completely inhibited” and the “reduction of TCPP uptake” value (lung cancer cells) is reported as 20%. The “inhibition of TCPP uptake” value [1] was “no inhibition”.
`CCCCC[C@@H](O)[C@H]1C(=O)O[C@H](C)[C@@H](O)/C=C/C=C/C=C/C=C/C=C(\C)[C@@H](O)C[C@H](O)C[C@H](O)C[C@H](O)C[C@H](O)C[C@H](O)C[C@@H]1O` [filipin] was tested, and the “effect on TCPP uptake” value (a cancer cell line; clathrin-independent endocytosis inhibitor) was “no effect”.
In the case of `OC[C@H]1O[C@@](CO)(O[C@H]2O[C@H](CO)[C@@H](O)[C@H](O)[C@H]2O)[C@@H](O)[C@@H]1O` [sucrose], the “inhibition of TCPP uptake by sucrose” value (HCC15, H157 and H358; flow cytometry) is reported as “moderately inhibited”.
